Like-named read-outs stand apart in the source and are kept apart here.
Tests used:
A549 cells = experiment: Measurement of PGE2-increasing activity in A549 cells (IL-1β stimulated, PGE2 quantified in supernatant); assay type: cell-based; details: Homo sapiens, read-out: Increased PGE2 production in A549 cells
Procedure, shortened: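 A549 cells grown 24 h in F12K with 10% FBS, then switched to serum-free medium with or without IL-1β and compound (0.1% DMSO final). After 24 h at 37 °C, 5% CO2, supernatant PGE2 quantified by immunoassay.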

human 15-PGDH = molecular target: T1, human 15-PGDH (Homo sapiens, UniProt P15428); experiment: Evaluation of 15-PGDH inhibitory activity (fluorescence enzyme assay, NAD+/PGE2); assay type: biochemical; details: human 15-PGDH enzyme, fluorescence Vmax
T1 construct: purchased R&D System 5660-DH
T1 sequence (P15428 1-266): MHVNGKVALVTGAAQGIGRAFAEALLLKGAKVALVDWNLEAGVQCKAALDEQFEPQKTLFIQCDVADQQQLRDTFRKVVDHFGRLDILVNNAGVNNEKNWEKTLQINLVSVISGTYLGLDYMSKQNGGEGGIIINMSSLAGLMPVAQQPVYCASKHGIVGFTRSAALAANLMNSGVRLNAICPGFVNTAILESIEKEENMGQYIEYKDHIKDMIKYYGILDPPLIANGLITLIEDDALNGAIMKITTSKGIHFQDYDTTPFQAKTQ
Description: 15-PGDH inhibition activity of Example compounds was measured as follows. 6.7 ng of human 15-PGDH (R&D System# 5660-DH) enzyme (10 µL) was added to a black 96 well plate, 60 µL of buffer (50 mM Tris-HCl, pH 7.5, 0.01% Tween 20) was added, and 10 µL of 200 µM β-Nicotinamide adenine dinucleotide sodium salt (Sigma, Cat# N0632-5G) was added. 10 µL of (10x) compound solution in DMSO was added and reacted for 10 minutes at room temperature.

[1] = 24 h, concentration of 1 µM of each compound, IL-1β treated A549 cells

IC50 (human 15-PGDH) [nM]	SMILES	fold induction at 1 µM (A549 cells; [1])	fold induction at 1 µM (A549 cells; A549, 24 h)
≤ 100	O=C(c1cnn2c(-c3cnc(-c4noc(=O)[nH]4)nc3)cccc12)N1CCCCC1 [Example 321, 3-[5-[3-(piperidine-1-carbonyl)pyrazolo[1,5-a]pyridin-7-yl]pyrimidin-2-yl]-4H-1,2,4-oxadiazol-5-one]	> 1.5	–
≤ 100	O=C(c1cnn2c(-c3cc(-c4ncon4)cc([N+](=O)[O-])c3)cccc12)N1CCCCC1 [Example 342, (7-(3-nitro-5-(1,2,4-oxadiazol-3-yl)phenyl)pyrazolo[1,5-a]pyridin-3-yl)(piperidin-1-yl)methanone]	> 1.5	–
≤ 100	O=C(c1cnn2c(-c3ccc(N4CCOC4=O)nc3)cccc12)N1CCCCC1 [Example 316, 3-(5-(3-(piperidine-1-carbonyl)pyrazolo[1,5-a]pyridin-7-yl)pyridin-2-yl)oxazolidin-2-one]	> 1.5	–
≤ 100	O=C(c1cnn2c(-c3ccc(O)c(Cl)c3)cccc12)N1CCCCC1 [Example 21]	> 1.5	–
≤ 100	O=C(c1ncc(-c2cccc3c(C(=O)N4CCCCC4)cnn23)cc1F)N1CCC1 [Example 248, [7-[6-(azetidine-1-carbonyl)-5-fluoro-3-pyridyl]pyrazolo[1,5-a]pyridin-3-yl]-(1-piperidyl)methanone]	> 1.5	–
≤ 100	CC(C)C1CCCN(C(=O)c2cnn3c(-c4ccc5c(c4)C(=O)NC5)cccc23)C1 (centres unmarked) [Example 400, 6-(3-(3-isopropylpiperidine-1-carbonyl)pyrazolo[1,5-a]pyridin-7-yl)isoindolin-1-one]	> 1.5	–
≤ 100	Cc1nnc(-c2ccc(-c3cccc4c(C(=O)N5CCCCC5)cnn34)cc2)o1 [Example 348, [7-[4-(5-methyl-1,3,4-oxadiazol-2-yl)phenyl]pyrazolo[1,5-a]pyridin-3-yl]-(1-piperidyl)methanone]	> 1.5	–
≤ 100	N#CCNC(=O)c1ccc(-c2cccc3c(C(=O)N4CCCCC4)cnn23)cn1 [Example 86, N-(cyanomethyl)-5-(3-(piperidine-1-carbonyl)pyrazolo[1,5-a]pyridin-7-yl)picolinamide]	> 1.5	–
≤ 100	CN1CCN(C(=O)c2cncc(-c3cccc4c(C(=O)N5CCCCC5)cnn34)c2)CC1 [Example 49, (4-methylpiperazin-1-yl)(5-(3-(piperidine-1-carbonyl)pyrazolo[1,5-a]pyridin-7-yl)pyridin-3-yl)methanone]	> 1.5	–
≤ 100	O=C(Nc1cccnc1)c1ccc(-c2cccc3c(C(=O)N4CCCCC4)cnn23)cn1 [Example 87, 5-(3-(piperidine-1-carbonyl)pyrazolo[1,5-a]pyridin-7-yl)-N-(pyridin-3-yl)picolinamide]	< 1.5	–
≤ 100	N#CCCNC(=O)c1ccc(-c2cccc3c(C(=O)N4CCCCC4)cnn23)o1 [Example 90, N-(2-cyanoethyl)-5-(3-(piperidine-1-carbonyl)pyrazolo[1,5-a]pyridin-7-yl)furan-2-carboxamide]	> 1.5	–
≤ 100	O=C(c1cncc(-c2cccc3c(C(=O)N4CCCCC4)cnn23)c1)N1CC2(CC(O)C2)C1 [Example 225, (6-hydroxy-2-azaspiro[3.3]heptan-2-yl)-[5-[3-(piperidine-1-carbonyl)pyrazolo[1,5-a]pyridin-7-yl]-3-pyridyl]methanone]	> 1.5	–
≤ 100	O=C(c1cnn2c(-c3cnc(Cl)c(F)c3)cccc12)N1CCCCC1 [Example 281, (7-(6-chloro-5-fluoropyridin-3-yl)pyrazolo[1,5-a]pyridin-3-yl)(piperidin-1-yl)methanone]	> 1.5	–
≤ 100	O=C(c1cnn2c(-c3cncc(F)c3)cccc12)N1CCCCC1 [Example 284, (7-(5-fluoropyridin-3-yl)pyrazolo[1,5-a]pyridin-3-yl)(piperidin-1-yl)methanone]	> 1.5	–
≤ 100	O=C1NCc2ccc(-c3cccc4c(C(=O)N5CC6(CC(F)C6)C5)cnn34)cc21 [Example 411, 6-(3-(6-fluoro-2-azaspiro[3.3]heptane-2-carbonyl)pyrazolo[1,5-a]pyridin-7-yl)isoindolin-1-one]	> 1.5	–
≤ 100	O=C(c1cnn2c(-c3cnc(F)c(F)c3)cccc12)N1CCCCC1 [Example 288, (7-(5,6-difluoropyridin-3-yl)pyrazolo[1,5-a]pyridin-3-yl)(piperidin-1-yl)methanone]	> 1.5	–
≤ 100	Cn1nccc1-c1cc(-c2cccc3c(C(=O)N4CCCCC4)cnn23)cc(N2CCOC2=O)n1 [Example 367, 3-(6-(1-methyl-1H-pyrazol-5-yl)-4-(3-(piperidine-1-carbonyl)pyrazolo[1,5-a]pyridin-7-yl)pyridin-2-yl)oxazolidin-2-one]	> 1.5	–
≤ 100	O=C(Cc1ccc(C(F)(F)F)nc1)Nc1ccc(-c2cccc3c(C(=O)N4CCCCC4)cnn23)cn1 [Example 408, N-[5-[3-(piperidine-1-carbonyl)pyrazolo[1,5-a]pyridin-7-yl]-2-pyridyl]-2-[6-(trifluoromethyl)-3-pyridyl]acetamide]	> 1.5	–
≤ 100	O=C(c1cnn2c(-c3ccc(Br)nc3)cccc12)N1CCCCC1 [Example 313, (7-(6-bromopyridin-3-yl)pyrazolo[1,5-a]pyridin-3-yl)(piperidin-1-yl)methanone]	> 1.5	–
≤ 100	CC(C)(C)OC(=O)N1CC=C(c2cccc3c(C(=O)N4CCCCC4)cnn23)CC1 [Example 120, tert-butyl 4-(3-(piperidine-1-carbonyl)pyrazolo[1,5-a]pyridin-7-yl)-3,6-dihydropyridine-1(2H)-carboxylate]	> 1.5	–
≤ 100	O=C(c1cnn2c(-c3ccc(-c4n[nH]c(=O)o4)nc3)cccc12)N1CCCCC1 [Example 360, 5-[5-[3-(piperidine-1-carbonyl)pyrazolo[1,5-a]pyridin-7-yl]-2-pyridyl]-3H-1,3,4-oxadiazol-2-one]	> 1.5	–
≤ 100	O=C(Nc1ccncc1)c1cccc(-c2cccc3c(C(=O)N4CCCCC4)cnn23)c1 [Example 38, 3-(3-(piperidine-1-carbonyl)pyrazolo[1,5-a]pyridin-7-yl)-N-(pyridin-4-yl)benzamide]	> 1.5	–
≤ 100	O=C(c1cnn2c(-c3cc(-c4noc(=O)[nH]4)cc([N+](=O)[O-])c3)cccc12)N1CCCCC1 [Example 329, 3-(3-nitro-5-(3-(piperidine-1-carbonyl)pyrazolo[1,5-a]pyridin-7-yl)phenyl)-1,2,4-oxadiazol-5(4H)-one]	> 1.5	–
≤ 100	COCCNC(=O)c1cccc(-c2cccc3c(C(=O)N4CCCCC4)cnn23)c1 [Example 30, N-(2-methoxyethyl)-3-(3-(piperidine-1-carbonyl)pyrazolo[1,5-a]pyridin-7-yl)benzamide]	> 1.5	–
≤ 100	O=C(c1ccc(-c2cccc3c(C(=O)N4CCCCC4)cnn23)cc1)N1CCC1 [Example 61, azetidin-1-yl(4-(3-(piperidine-1-carbonyl)pyrazolo[1,5-a]pyridin-7-yl)phenyl)methanone]	> 1.5	–
≤ 100	O=C(c1cnn2c(-c3ccccc3)cccc12)N1CC2CCC1C2 (centres unmarked) [Example 227, (2-azabicyclo[2.2.1]heptan-2-yl)(7-phenylpyrazolo[1,5-a]pyridin-3-yl)methanone]	> 1.5	–
≤ 100	O=C(c1cnn2c(-c3ccc(-c4ncon4)cc3)cccc12)N1CCCCC1 [Example 352, [7-[4-(1,2,4-oxadiazol-3-yl)phenyl]pyrazolo[1,5-a]pyridin-3-yl]-(1-piperidyl)methanone]	> 1.5	–
≤ 100	Cn1nc(N)c2ccc(-c3cccc4c(C(=O)N5CCCCC5)cnn34)cc21 [Example 310, [7-(3-amino-1-methyl-indazol-6-yl)pyrazolo[1,5-a]pyridin-3-yl]-(1-piperidyl)methanone]	> 1.5	–
≤ 100	O=C(c1cnn2c(-c3cc(-c4cncc(F)c4)nc(N4CCOC4=O)c3)cccc12)N1CCCCC1 [Example 370, 3-(5'-fluoro-4-(3-(piperidine-1-carbonyl)pyrazolo[1,5-a]pyridin-7-yl)-[2,3'-bipyridin]-6-yl)oxazolidin-2-one]	> 1.5	–
≤ 100	O=C(c1cnn2c(-c3cncc([N+](=O)[O-])c3)cccc12)N1CCCCC1 [Example 318, (7-(5-nitropyridin-3-yl)pyrazolo[1,5-a]pyridin-3-yl)(piperidin-1-yl)methanone]	> 1.5	–

SMILES	IC50 (human 15-PGDH) [nM]	fold induction at 1 µM (A549 cells; [1])	fold induction at 1 µM (A549 cells; A549, 24 h)
O=C(c1cnn2c(-c3ccccc3)cccc12)N1C2CCC1CC2 [Example 229, (7-azabicyclo[2.2.1]heptan-7-yl)(7-phenylpyrazolo[1,5-a]pyridin-3-yl)methanone]	≤ 100	–	> 1.5

Source: patent EP4653437A2 (Innovo Therapeutics Inc., priority 2023, dated 2024)
